Results on 16 compounds are retold here after US20250215029A1 (Recludix Pharma, Inc., priority 2022, published 2025).

For test [1], the target named is T1, Recombinant STAT3 protein (STAT3 (G127-I722)) (Homo sapiens, UniProt P40763).
T1 construct: Recombinant STAT3 protein (STAT3 (G127-I722))
The experiment in a line: STAT3 Fluorescence Polarization (FP) Assay. The format is binding. Particulars: STAT3 (G127-I722) 25 nM, probe 5-FAM-GpYLPQTV-NH2 2 nM, 45-minute incubation; read-out: STAT3 (FP assay IC50 class). In a few lines: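 Displacement of a 2 nM 5-FAM-labelled pY peptide (GpYLPQTV) from 25 nM recombinant STAT3 (G127-I722) was monitored by fluorescence polarization. Incubation lasted 45 min at room temperature in pH 7.4 HEPES buffer containing 1% DMSO.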

Test [2] has as its target T2, Recombinant STAT6 protein (STAT6 (W123-T658)) (Homo sapiens, UniProt P42226).
T2 construct: Recombinant STAT6 protein (STAT6 (W123-T658))
T2 sequence (P42226 123-658): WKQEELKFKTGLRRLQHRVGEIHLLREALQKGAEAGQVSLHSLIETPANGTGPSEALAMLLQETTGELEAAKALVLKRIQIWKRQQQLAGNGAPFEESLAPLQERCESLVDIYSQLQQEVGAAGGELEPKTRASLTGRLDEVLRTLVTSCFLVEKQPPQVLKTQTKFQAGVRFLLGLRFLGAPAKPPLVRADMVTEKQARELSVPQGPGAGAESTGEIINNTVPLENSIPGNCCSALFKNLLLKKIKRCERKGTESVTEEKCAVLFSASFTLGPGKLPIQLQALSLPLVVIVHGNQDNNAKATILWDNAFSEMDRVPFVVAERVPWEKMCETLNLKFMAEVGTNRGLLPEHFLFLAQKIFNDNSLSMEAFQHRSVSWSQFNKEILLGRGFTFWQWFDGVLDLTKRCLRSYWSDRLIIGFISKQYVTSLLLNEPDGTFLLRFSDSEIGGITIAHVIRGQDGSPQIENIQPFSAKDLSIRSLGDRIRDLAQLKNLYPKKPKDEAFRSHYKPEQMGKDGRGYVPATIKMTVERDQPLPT
The test is described as follows: STAT6 Fluorescence Polarization (FP) Assay. It counts as binding. Particulars: STAT6 (W123-T658) 250 nM, probe 5-FAM-Ap[…]-NH2 2 nM, 45-minute incubation; read-out: STAT6 (FP assay IC50 class). An outline of the steps: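 Displacement of a fluorescent phosphotyrosine peptide (2 nM) from 250 nM STAT6 (W123-T658) is measured by polarization after a 45-minute room-temperature incubation. Compounds are titrated serially at 1% DMSO, and IC50 values derive from regression of mP on log concentration.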
(In general: Polarisation of emitted light reports the rotation of a fluorescent probe.)

Usually IC50 stands for the concentration needed to halve the response being measured.

SMILES strings stand for the structures.

T1 sequence (P40763 127-722): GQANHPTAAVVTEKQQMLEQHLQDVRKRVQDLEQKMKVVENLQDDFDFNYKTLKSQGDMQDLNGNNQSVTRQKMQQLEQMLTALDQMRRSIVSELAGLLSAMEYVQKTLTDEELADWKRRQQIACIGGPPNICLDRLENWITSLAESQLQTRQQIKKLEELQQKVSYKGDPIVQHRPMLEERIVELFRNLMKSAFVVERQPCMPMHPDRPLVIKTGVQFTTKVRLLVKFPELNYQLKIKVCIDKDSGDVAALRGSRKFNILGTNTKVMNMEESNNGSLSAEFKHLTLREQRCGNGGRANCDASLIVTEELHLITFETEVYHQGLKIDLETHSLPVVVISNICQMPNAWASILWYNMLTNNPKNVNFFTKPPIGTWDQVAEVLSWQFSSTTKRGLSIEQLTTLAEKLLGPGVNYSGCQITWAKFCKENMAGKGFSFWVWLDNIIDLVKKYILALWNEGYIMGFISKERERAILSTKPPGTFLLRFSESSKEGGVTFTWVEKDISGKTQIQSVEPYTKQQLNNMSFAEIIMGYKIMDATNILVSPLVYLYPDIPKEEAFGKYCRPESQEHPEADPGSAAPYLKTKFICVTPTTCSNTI

`COC[C@@H]1CCN1c1ncncc1C1CN(C(=O)[C@@H]2CC[C@@H]3CCC[C@H](NC(=O)c4cc5cc(CP(=O)(O)O)ccc5s4)C(=O)N32)C1` [Compound 675, ((2-(((3S,6S,9aS)-3-(3-(4-((S)-2-(methoxymethyl)azetidin-1-yl)pyrimidin-5-yl)azetidine-1-carbonyl)-5-oxooctahydro-1H-pyrrolo[1,2-a]azepin-6-yl)carbamoyl)benzo [b]thiophen-5-yl)methyl) phosphonic acid]: the results for the half-inhibitory concentration (IC50) in test [1] and in test [2] were under 0.1 µM and 3 to 30 µM, respectively.

For the compound `C[C@H]1C[C@H]2CC[C@@H](C(=O)N3CC(c4cncnc4N4CCC4)C3)N2C(=O)[C@@H](NC(=O)c2cc3cc(CP(=O)(O)O)ccc3s2)C1` [Compound 678, ((2-(((3S,6S,8R,9aR)-3-(3-(4-(azetidin-1-yl)pyrimidin-5-yl)azetidine-1-carbonyl)-8-methyl-5-oxooctahydro-1H-pyrrolo[1,2-a]azepin-6-yl)carbamoyl)benzo [b]thiophen-5-yl)methyl) phosphonic acid], the values for the half-maximal inhibitory concentration (IC50) in test [1] and in test [2] were under 0.1 µM and 3 to 30 µM, respectively.

Consider `C[C@H]1COCCN1c1ccncc1C1CN(C(=O)[C@@H]2CC[C@@H]3CCC[C@H](NC(=O)c4cc5cc(CP(=O)(O)O)ccc5s4)C(=O)N32)C1` [Compound 679, ((2-(((3S,6S,9aS)-3-(3-(4-((S)-3-methylmorpholino)pyridin-3-yl)azetidine-1-carbonyl)-5-oxooctahydro-1H-pyrrolo[1,2-a]azepin-6-yl)carbamoyl)benzo [b]thiophen-5-yl)methyl) phosphonic acid], for which the half-inhibitory concentration (IC50) in test [1] was under 0.1 µM; in test [2] it was 3 to 30 µM.

Take `N#CC1CN(c2ccncc2C2CN(C(=O)[C@@H]3CC[C@@H]4CCC[C@H](NC(=O)c5cc6cc(CP(=O)(O)O)ccc6s5)C(=O)N43)C2)C1` [Compound 680, ((2-(((3S,6S,9aS)-3-(3-(4-(3-cyanoazetidin-1-yl)pyridin-3-yl)azetidine-1-carbonyl)-5-oxooctahydro-1H-pyrrolo[1,2-a]azepin-6-yl)carbamoyl)benzo [b]thiophen-5-yl)methyl) phosphonic acid]: the concentration for half-maximal inhibition (IC50) in test [1] is under 0.1 µM; in test [2], 3 to 30 µM.

As for `O=C(N[C@H]1CCC[C@H]2CC[C@@H](C(=O)N3CC(c4cncnc4N4CCC4)C3)N2C1=O)c1cc2cc(CP(=O)(O)O)ccc2s1` [Compound 681, ((2-(((3S,6S,9aS)-3-(3-(4-(azetidin-1-yl)pyrimidin-5-yl)azetidine-1-carbonyl)-5-oxooctahydro-1H-pyrrolo[1,2-a]azepin-6-yl)carbamoyl)benzo [b]thiophen-5-yl)methyl) phosphonic acid], the IC50 is under 0.1 µM in test [1] and 3 to 30 µM in test [2].

`COc1c(Cl)cncc1C1CN(C(=O)[C@@H]2CC[C@@H]3CCC[C@H](NC(=O)c4cc5cc(C(F)P(=O)(O)O)ccc5s4)C(=O)N32)C1` (stereo partly drawn) [Compound 682, ((2-(((3S,6S,9aS)-3-(3-(5-chloro-4-methoxypyridin-3-yl)azetidine-1-carbonyl)-5-oxooctahydro-1H-pyrrolo[1,2-a]azepin-6-yl)carbamoyl)benzo [b]thiophen-5-yl)fluoromethyl) phosphonic acid]: the 50% inhibitory concentration (IC50) in test [1] was in the range of 0.1 to 1 µM; in test [2], 3 to 30 µM.

On to `O=C(N[C@H]1CCC[C@H]2CC[C@@H](C(=O)N3CC(c4cnccc4N4C[C@@H]5C[C@H]4CO5)C3)N2C1=O)c1cc2cc(C(F)P(=O)(O)O)ccc2s1` (stereo partly drawn) [Compound 683, ((2-(((3S,6S,9aS)-3-(3-(4-((1S,4S)-2-oxa-5-azabicyclo[2.2.1]heptan-5-yl)pyridin-3-yl)azetidine-1-carbonyl)-5-oxooctahydro-1H-pyrrolo[1,2-a]azepin-6-yl)carbamoyl)benzo [b]thiophen-5-yl)fluoromethyl) phosphonic acid], for which the IC50 in test [1] is under 0.1 µM; in test [2], 3 to 30 µM.

Take `CO[C@H]1CCN(c2ccncc2C2CN(C(=O)[C@@H]3CC[C@@H]4CCC[C@H](NC(=O)c5cc6cc(CP(=O)(O)O)ccc6s5)C(=O)N43)C2)C1` [Compound 686, ((2-(((3S,6S,9aS)-3-(3-(4-((S)-3-methoxypyrrolidin-1-yl)pyridin-3-yl)azetidine-1-carbonyl)-5-oxooctahydro-1H-pyrrolo[1,2-a]azepin-6-yl)carbamoyl)benzo [b]thiophen-5-yl)methyl) phosphonic acid]: the concentration for half-maximal inhibition (IC50) in test [1] is under 0.1 µM; in test [2] it was 3 to 30 µM.

Take `O=C(N[C@H]1CCC[C@H]2CC[C@@H](C(=O)N3CC(c4cnccc4N4CC[C@@H](F)C4)C3)N2C1=O)c1cc2cc(CP(=O)(O)O)ccc2s1` [Compound 687, ((2-(((3S,6S,9aS)-3-(3-(4-((R)-3-fluoropyrrolidin-1-yl)pyridin-3-yl)azetidine-1-carbonyl)-5-oxooctahydro-1H-pyrrolo[1,2-a]azepin-6-yl)carbamoyl)benzo [b]thiophen-5-yl)methyl) phosphonic acid]: the half-maximal inhibitory concentration (IC50) is under 0.1 µM in test [1] and 3 to 30 µM in test [2].

As for `CO[C@@H]1CCN(c2ccncc2C2CN(C(=O)[C@@H]3CC[C@@H]4CCC[C@H](NC(=O)c5cc6cc(CP(=O)(O)O)ccc6s5)C(=O)N43)C2)C1` [Compound 688, ((2-(((3S,6S,9aS)-3-(3-(4-((R)-3-methoxypyrrolidin-1-yl)pyridin-3-yl)azetidine-1-carbonyl)-5-oxooctahydro-1H-pyrrolo[1,2-a]azepin-6-yl)carbamoyl)benzo [b]thiophen-5-yl)methyl) phosphonic acid], the IC50 in test [1] is under 0.1 µM; in test [2], 3 to 30 µM.

Consider `O=C(N[C@H]1CCC[C@H]2CC[C@@H](C(=O)N3CC(c4cnccc4N4CC(C(F)F)C4)C3)N2C1=O)c1cc2cc(CP(=O)(O)O)ccc2s1` [Compound 691, ((2-(((3S,6S,9aS)-3-(3-(4-(3-(difluoromethyl)azetidin-1-yl)pyridin-3-yl)azetidine-1-carbonyl)-5-oxooctahydro-1H-pyrrolo[1,2-a]azepin-6-yl)carbamoyl)benzo [b]thiophen-5-yl)methyl) phosphonic acid], for which the IC50 was under 0.1 µM in test [1] and 3 to 30 µM in test [2].

Take `O=C(N[C@H]1CCC[C@H]2CC[C@@H](C(=O)N3CC(c4cnccc4N4CC(C(F)(F)F)C4)C3)N2C1=O)c1cc2cc(CP(=O)(O)O)ccc2s1` [Compound 692, ((2-(((3S,6S,9aS)-5-oxo-3-(3-(4-(3-(trifluoromethyl)azetidin-1-yl)pyridin-3-yl)azetidine-1-carbonyl)octahydro-1H-pyrrolo[1,2-a]azepin-6-yl)carbamoyl)benzo [b]thiophen-5-yl)methyl) phosphonic acid]: the IC50 is under 0.1 µM in test [1] and 3 to 30 µM in test [2].

Consider `CN(C)c1cccnc1C1CN(C(=O)[C@@H]2CC[C@@H]3CCC[C@H](NC(=O)c4cc5cc(C(F)P(=O)(O)O)ccc5s4)C(=O)N32)C1` (stereo partly drawn) [Compound 693, ((2-(((3S,6S,9aS)-3-(3-(3-(dimethylamino)pyridin-2-yl)azetidine-1-carbonyl)-5-oxooctahydro-1H-pyrrolo[1,2-a]azepin-6-yl)carbamoyl)benzo [b]thiophen-5-yl)fluoromethyl) phosphonic acid], for which the IC50 in test [1] lay in the range of 1 to 10 µM; in test [2], 3 to 30 µM.

`O=C(N[C@H]1CCC[C@H]2CC[C@@H](C(=O)N3CC(c4cnccc4N4C[C@H]5C[C@@H]4CO5)C3)N2C1=O)c1cc2cc(C(F)P(=O)(O)O)ccc2s1` (stereo partly drawn) [Compound 694, ((2-(((3S,6S,9aS)-3-(3-(4-((1R,4R)-2-oxa-5-azabicyclo[2.2.1]heptan-5-yl)pyridin-3-yl)azetidine-1-carbonyl)-5-oxooctahydro-1H-pyrrolo[1,2-a]azepin-6-yl)carbamoyl)benzo [b]thiophen-5-yl)fluoromethyl) phosphonic acid]: the IC50 in test [1] is under 0.1 µM; in test [2] it was 0.3 to 3 µM.

Take `O=C(N[C@H]1CCC[C@H]2CC[C@@H](C(=O)N3CC(c4cnccc4OC4CCCC4)C3)N2C1=O)c1cc2cc(C(F)P(=O)(O)O)ccc2s1` (stereo partly drawn) [Compound 695, ((2-(((3S,6S,9aS)-3-(3-(4-(cyclopentyloxy)pyridin-3-yl)azetidine-1-carbonyl)-5-oxooctahydro-1H-pyrrolo[1,2-a]azepin-6-yl)carbamoyl)benzo [b]thiophen-5-yl)fluoromethyl) phosphonic acid]: the concentration for half-maximal inhibition (IC50) in test [1] is under 0.1 µM; in test [2] it was 3 to 30 µM.

As to `O=C(N[C@H]1CCC[C@H]2CC[C@@H](C(=O)N3CC(C4=CCOCC4)C3)N2C1=O)c1cc2cc(CP(=O)(O)O)ccc2s1` [Compound 697, ((2-(((3S,6S,9aS)-3-(3-(3,6-dihydro-2H-pyran-4-yl)azetidine-1-carbonyl)-5-oxooctahydro-1H-pyrrolo[1,2-a]azepin-6-yl)carbamoyl)benzo [b]thiophen-5-yl)methyl) phosphonic acid], the results for the IC50 in test [1] and in test [2] were 1 to 10 µM and 3 to 30 µM, respectively.
